# Reference: patent US20090259054A1, “Methods and Compositions for the Treatment of Angiogenesis and Macular Degeneration” (The Texas A&M University System, priority 2008, published 2009)
# Entries after “also recorded” stand apart in the source; their conditions may differ.
# Tests used:
# [1] = tested on: HUVEC cells; assay: Proliferation assay (CellTiter 96 Aqueous One); format: cell-based; conditions: Homo sapiens, read-out: Concentration that inhibits HUVEC cell proliferation by 50%
# Excerpt: (§1) HUVEC and PC3 cell proliferation assays with different concentrations of GA were followed according to the CellTiter 96 Aqueous One Solution Cell Proliferation Assay (Promega) and analyzed using a VERSAMAX microplate reader (Molecular Devices).
# [2] = tested on: PC3 cells; assay: Proliferation assay (CellTiter 96 Aqueous One); format: cell-based; conditions: Homo sapiens, PC-3; PC3 cancer cells; read-out: Concentration required to inhibit PC3 cell proliferation by 50%
# Excerpt: as §1
# [3] = tested on: HUVEC cells; assay: Wound migration assay, VEGF dependent; format: cell-based, human; conditions: 10 nM GA, 4 ng/ml VEGF, 24 hours
# Method: HUVEC cells were allowed to grow to full confluence on six-well plates precoated with 0.1% gelatin. Monolayer cells were wounded by scratching with 1 ml pipette tip and washed three times with 1×PBS. Fresh endothelial cell growth medium (hereinafter, ECGM) was added with or without 4 ng/ml VEGF, which was received from the NIH experimental branch, and supplemented with different concentrations of GA. Images were taken after 24 hours of incubation at 37° C. in a 5% CO2 incubator (hereinafter, 5% CO2) with a Nikon digital camera. For PC3 cell migration, PC3 cells were allowed to grow to full confluence on six-well plates and wounded by scratching with a 1 ml pipette tip and washed three times of 1×PBS. Fresh 1640 medium was added with 4 ng/ml VEGF and different concentrations of GA. After a 24-hour incubation period, images were take with a Leica DM IRB inverted microscope. The migrated cells were quantified by manual counting of high power fields (HPF, 200×) and percent inhibition was expressed using untreated wells as 100% (t-test, p<0.005).
# [4] = tested on: HUVEC cells; assay: Transwell migration (invasion) assay; format: cell-based, human; conditions: 40 nM GA, 4 hours
# Method: The transwell (Corning Incorporated, NY, USA) were coated with 0.1% gelatin (Sigma) for 30 minutes at 37° C. After washed the transwells three times with 1×PBS, the bottom chambers (600 μl) were filled with ECGM medium with 20% FBS supplemented with 4 ng/ml VEGF and the top chambers were seeded with 100 μl ECGM medium and HUVEC cells (4×10^4 cell/well). The top and bottom chambers contained the same series of concentrations of gambogic acid (GA). HUVEC cells were allowed to migrate for 4 hours at 37° C., 5% CO2. After the incubation, cells on the top surface of the membrane (nonmigrated) were scraped with a cotton swab. Cells on the bottom side of the membrane (migrated cells) were fixed with 4% paraformaldehyde for 20 minutes and washed three times with 1×PBS. The cells were stained by hematoxylin and eosin (hereinafter, H&E) staining and then destained with 1×PBS (pH 7.4). The membranes were left to air dry at room temperature for 30 minutes. Images were taken using an OLYMPUS inverted microscope and migrated cells were quantified by manual counting using high power fields (HPF, 200×). The invaded cells were calculated and percent inhibition was expressed using untreated wells as 100% (t-test, p<0.01).
# [5] = tested on: mice aortic rings; assay: Aortic ring assay (micro-vessel growth); format: cell-based; conditions: 10 nM GA, 4 days incubation
# Method: Forty-eight-well plates were covered with 100 μl of Matrigel at 4° C. and incubated at 37° C., 5% CO2 for 30 minutes. Aortas isolated from mice were cleaned of periadventitial fat and connective tissues, and cut into about 1-1.5 mm-long rings. After being rinsed five times with endothelial cell-based medium, the aortas were placed on the Matrigel covered wells and covered with another 100 μl of Matrigel. Artery rings were cultured in 1.5 ml of ECGM medium without serum for 24 hours. The medium was then replaced with 1.5 ml of ECGM medium supplemented with or without GA. The medium was changed every two days with the exact composition as described above. After 4 days incubation, the micro-vessel growth was quantified in the mouse aortic ring assay by taking photographs with an Olympus IX 70 inverted microscope using a 4× objective lens. After images were acquired, the outgrowth area was delineated and measured with Pro Plus software (Media Cybernetics).
# [6] = tested on: mice exposed to OIR; assay: Mouse oxygen-induced ischemic retinopathy (OIR) model, retinal neovascularization; format: in vivo; conditions: GA 10 mg/kg, P17 mice exposed to OIR, p<0.001
# Method: FIG. 9B is a bar graph providing a quantitative assessments of retinal neovascularization in eyes from P17 control and GA-treated mice exposed to OIR. Data in each column are the mean SD values from four eyes of four mice. […] GA concentration was used as 10 mg/kg for this mouse model. Assessment of retinal neovasculature in control (left) and GA-treated (right) mice during OIR.P7 mice were exposed to a cycle of hyperoxia and normoxia, and eyes were removed for appropriate analysis. The abnormal angiogenesis associated with vitreal invasion can be seen as glomeruloid-like tufts of cell (arrow).
smiles,measurement,setting,value
"CC(C)=CCC[C@]1(C)C=Cc2c(O)c3c(c(CC=C(C)C)c2O1)O[C@]12C(=C[C@@H]4C[C@H]1C(C)(C)O[C@@]2(C/C=C(/C)C(=O)O)C4=O)C3=O [GA, gambogic acid]",IC50,[1],80 nM
same,IC50,[2],> 400 nM
same,VEGF dependent migration of HUVEC cells,[3],inhibits VEGF dependent migration; also recorded: strongly inhibited VEGF dependent migration
same,Invasion of HUVEC cells (transwell),[4],inhibit almost all invasion activities
same,New vessel growth from aortic rings,[5],inhibited almost all new vessel growth
same,Retinal neovascularization,[6],significantly inhibits retinal neovascularization; also recorded: significant difference in the degree of neovascularization
